In one data set the test system is MT4. Kind of data set: Cytotoxicity against human MT4 cells assessed as reduction in cell viability incubated for 5 days by MTT assay. In kind it is functional. To be noted: MT4, 120 h. (Tetrazolium assays rely on reduction of a dye to a coloured formazan, in cell work by metabolically active cells.)
A short description of data set [1]: Selectivity index, ratio of CC50 for human MT4 cells to EC50 for antiviral activity against HIV1 3B infected in human MT4 cells incubated for 5 days by MTT assay. The data set is classed as toxicity, cell-based. To be noted: MT4 cells (uninfected for CC50; HIV-1 3B infected for EC50).
Data set [2] has as its system Human immunodeficiency virus 1. Put plainly: Antiviral activity against HIV1 3B infected in human MT4 cells incubated assessed as reduction in virus-induced cytopathic effect for 5 days by MTT assay. The data set is classed as functional, organism-based. To be noted: Human immunodeficiency virus 1, 3B, MT4, 120 h. For orientation: Cytopathic effects are the visible damage that an infection or toxin causes in cultured cells.

The target of data set [3] is Human immunodeficiency virus type 1 reverse transcriptase (Human immunodeficiency virus 1, UniProt Q72547). Put plainly: Inhibition of recombinant wild type HIV1 reverse transcriptase p66/p51 incubated for 40 mins by picogreen dye-based spectrofluorometric analysis.
Data set [4] deals with Human immunodeficiency virus 1. Put plainly: Antiviral activity against HIV1 harboring reverse transcriptase Y188L mutant infected in human MT4 cells assessed as reduction in virus-induced cytopathic effect incubated for 5 days by MTT assay. The data set is classed as functional, organism-based. As to conditions: Human immunodeficiency virus 1, MT4, 120 h.
In data set [5] the test system is Human immunodeficiency virus 1. Put plainly: Antiviral activity against HIV1 harboring reverse transcriptase Y181C mutant infected in human MT4 cells assessed as reduction in virus-induced cytopathic effect incubated for 5 days by MTT assay. As to conditions: Human immunodeficiency virus 1, MT4, 120 h. In kind it is functional, organism-based.
The test system of data set [6] is Human immunodeficiency virus 1. Kind of data set: Antiviral activity against HIV1 harboring reverse transcriptase E138K mutant infected in human MT4 cells assessed as reduction in virus-induced cytopathic effect incubated for 5 days by MTT assay. In kind it is functional, organism-based. To be noted: Human immunodeficiency virus 1, MT4, 120 h.
Data set [7] has as its system Human immunodeficiency virus 1. Put plainly: Antiviral activity against HIV1 harboring reverse transcriptase L100I mutant infected in human MT4 cells assessed as reduction in virus-induced cytopathic effect incubated for 5 days by MTT assay. The data set is classed as functional, organism-based. To be noted: Human immunodeficiency virus 1, MT4, 120 h.
Data set [8] deals with Human immunodeficiency virus type 1 reverse transcriptase (Human immunodeficiency virus 1) (UniProt Q72547). Put plainly: Ratio of IC50 for nevirapine to IC50 for test compound for recombinant wild type HIV1 reverse transcriptase p66/p51.
Data set [9] deals with Human immunodeficiency virus 1. Kind of data set: Antiviral activity against HIV1 harboring reverse transcriptase K103N mutant infected in human MT4 cells assessed as reduction in virus-induced cytopathic effect incubated for 5 days by MTT assay. To be noted: Human immunodeficiency virus 1, MT4, 120 h. The data set is classed as functional, organism-based.

A word on the CC50: it is the concentration at which the toxic effect on the cells reaches its halfway point. Usually EC50 stands for the concentration at which the effect is half-maximal. On to `Cc1cc(-c2ccc(Oc3ccnc(Nc4ccc(C#N)cc4)n3)c(F)c2)ccc1C#N`, for which the half-maximal cytotoxic concentration (CC50) with MT4 was more than 297 µM. The selectivity ratio at 120 h in data set [1] is more than 6020. For the same compound, the EC50 in data set [2] was 49.9 nM.

Consider `COc1cc(Nc2ccnc(Nc3ccc(C#N)cc3)n2)ccc1-c1ccc(C#N)cc1`, for which, in the data set on MT4, the CC50 was 5.26 µM. In data set [1], the selectivity ratio at 120 h came to 304. Besides, in [2], the 50% effective concentration (EC50) was 17.5 nM.

`N#Cc1ccc(Nc2nccc(Oc3ccc(-c4ccc(C#N)c(F)c4)cc3F)n2)cc1`: in the data set on MT4, the CC50 is more than 294 µM. In addition, the selectivity ratio at 120 h in data set [1] was more than 2430. Besides, the 50% effective concentration (EC50) in data set [2] came to 120 nM.

As to `N#Cc1ccc(Nc2nccc(Oc3ccc(-c4ccc(C#N)cc4)cc3C(F)(F)F)n2)cc1`, in the data set on MT4, the CC50 was more than 273 µM. Besides, the selectivity ratio at 120 h in [1] is more than 40600. In data set [2], the EC50 was found to be 6.8 nM.

The term IC50 denotes the concentration needed to halve the response being measured. `N#Cc1ccc(Nc2nccc(Oc3ccc(-c4ccc(C#N)cc4)cc3Cl)n2)cc1`: the cytotoxic concentration (CC50) in the data set with MT4 is more than 295 µM. For the same compound, the IC50 in data set [3] came to 8.3 nM. Moreover, in data set [1], the selectivity ratio at 120 h was more than 179000. Also, the EC50 was 330 nM in data set [4]; 13.7 nM in data set [5]; less than 3.8 nM in data set [6]; 11.3 nM in [7]; 1.7 nM in data set [2]; less than 3.8 nM in data set [9]. In data set [8], the Ratio IC50 was in the range of 21 to 109.

For the compound `Cc1cc(Oc2ccnc(Nc3ccc(C#N)cc3)n2)ccc1-c1ccc(C#N)cc1`, the CC50 with MT4 is 29.4 µM. The selectivity ratio at 120 h in data set [1] stood at 41. For the same compound, the EC50 in data set [2] came out at 719 nM.

As to `Cc1cc(C#N)ccc1-c1ccc(Oc2ccnc(Nc3ccc(C#N)cc3)n2)c(F)c1`, the CC50 with MT4 was more than 297 µM. For the same compound, the selectivity ratio at 120 h in [1] is more than 4460. Besides, the EC50 in data set [2] amounted to 66.5 nM.

Turning to `Cc1cc(-c2ccc(C#N)cc2F)ccc1Oc1ccnc(Nc2ccc(C#N)cc2)n1`, in the data set with MT4, the CC50 was more than 297 µM. For the same compound, the concentration for half-maximal inhibition (IC50) in data set [3] is 8.7 nM. Besides, the selectivity ratio at 120 h in data set [1] is more than 27500. Also, the half-maximal effective concentration (EC50) in [4] was more than 294000 nM; in data set [5] it was 14.6 nM; in data set [6], 4.9 nM; in data set [7], 13.2 nM; in [2] it was 10.7 nM; in data set [9], 4.7 nM. Also, in data set [8], the Ratio IC50 lay within 21 to 109.

On to `N#Cc1ccc(Nc2nccc(Oc3ccc(-c4ccc(C#N)cc4)c(C(F)(F)F)c3)n2)cc1`, for which the CC50 with MT4 was more than 273 µM. Moreover, in [1], the selectivity ratio at 120 h is more than 15000. Further, the EC50 in data set [2] amounted to 18.2 nM.

In the case of `N#Cc1ccc(Nc2nccc(Oc3c(F)cc(-c4ccc(C#N)cc4)cc3F)n2)cc1`, the CC50 in the data set with MT4 is more than 294 µM. Moreover, the IC50 in data set [3] is 13.2 nM. The selectivity ratio at 120 h in data set [1] is more than 89300. Also, the EC50 was more than 294000 nM in [4]; 23.5 nM in [5]; 5.2 nM in [6]; 17.2 nM in [7]; 3.3 nM in data set [2]; 3.5 nM in data set [9]. Further, in data set [8], the Ratio IC50 was 21 to 109.

As for `COc1cc(Oc2ccnc(Nc3ccc(C#N)cc3)n2)ccc1-c1ccc(C#N)cc1`, the cytotoxic concentration (CC50) in the data set with MT4 was more than 298 µM. Besides, the selectivity ratio at 120 h in [1] was more than 100000. Further, in data set [2], the concentration for a half-maximal effect (EC50) came out at 3.1 nM.

With `Cc1cc(-c2ccc(C#N)cc2)ccc1Nc1ccnc(Nc2ccc(C#N)cc2)n1`, the CC50 in the data set with MT4 turned out to be 9.2 µM. The IC50 in data set [3] was less than 6.2 nM. Besides, the selectivity ratio at 120 h in data set [1] is 4480. Moreover, the concentration for a half-maximal effect (EC50) in data set [4] is 240 nM; in data set [5], 9 nM; in [6], 3 nM; in data set [7], 16.7 nM; in [2], 2.1 nM; in data set [9], 3 nM. Besides, in data set [8], the Ratio IC50 was in the range of 21 to 109.

Turning to `N#Cc1ccc(Nc2nccc(Oc3ccc(-c4ccc(C#N)cc4Cl)cc3Cl)n2)cc1`, the CC50 in the data set with MT4 was more than 273 µM. Besides, the selectivity ratio at 120 h in [1] is more than 55. Moreover, the concentration for a half-maximal effect (EC50) in data set [2] came to 4990 nM.

In the case of `N#Cc1ccc(Nc2nccc(Nc3ccc(-c4ccc(C#N)cc4)cc3F)n2)cc1`, in the data set with MT4, the CC50 worked out at 308 µM. In addition, the selectivity ratio at 120 h in [1] was more than 27300. Further, the EC50 in data set [2] was 11.3 nM.

For the compound `N#Cc1ccc(Nc2nccc(Nc3ccc(-c4ccc(C#N)cc4)c(F)c3)n2)cc1`, the CC50 in the data set with MT4 was more than 271 µM. Besides, the selectivity ratio at 120 h in data set [1] is more than 18600. Moreover, in data set [2], the EC50 stood at 14.5 nM.

Turning to `N#Cc1ccc(Nc2nccc(Oc3ccc(-c4ccc(C#N)cc4)c(F)c3)n2)cc1`, in the data set with MT4, the CC50 was more than 307 µM. The selectivity ratio at 120 h in data set [1] is more than 98000. Also, in data set [2], the 50% effective concentration (EC50) is 3.2 nM.

Consider `N#Cc1ccc(Nc2nccc(Nc3c(F)cc(-c4ccc(C#N)cc4)cc3F)n2)cc1`, for which the Ratio IC50 in data set [8] is 21 to 109.

As to `COc1cc(-c2ccc(C#N)cc2)ccc1Nc1ccnc(Nc2ccc(C#N)cc2)n1`, the CC50 with MT4 was more than 299 µM. In [3], the IC50 came to 6 nM. Also, the selectivity ratio at 120 h in data set [1] was more than 106000. Further, the EC50 in data set [4] is more than 299000 nM; in [5] it was 158 nM; in data set [6] it was 7.4 nM; in [7] it was 122 nM; in [2], 2.9 nM; in data set [9] it was 18.4 nM. Moreover, the Ratio IC50 in data set [8] was 21 to 109.

As for `Cc1cc(-c2ccc(C#N)cc2)c(Cl)cc1Oc1ccnc(Nc2ccc(C#N)cc2)n1`, the CC50 in the data set with MT4 was more than 286 µM. For the same compound, in data set [3], the IC50 was 18.8 nM. Moreover, the selectivity ratio at 120 h in data set [1] is more than 63300. Further, the concentration for a half-maximal effect (EC50) in data set [4] is more than 286000 nM; in data set [5], 32 nM; in data set [6] it was 11.9 nM; in data set [7], 8.5 nM; in [2], 4.6 nM; in data set [9] it was 3.7 nM. In addition, the Ratio IC50 in [8] lay in the range of 21 to 109.

For the compound `N#Cc1ccc(Nc2nccc(Oc3ccc(-c4ccc(C#N)c(Cl)c4)cc3Cl)n2)cc1`, the CC50 with MT4 came to 14.9 µM. Moreover, the selectivity ratio at 120 h in data set [1] is 232. The EC50 in data set [2] came to 63.5 nM.

On to `O=C1Nc2ccc(Cl)cc2[C@@](C#CC2CC2)(C(F)(F)F)O1` [EFAVIRENZ], for which, in the data set with MT4, the CC50 was more than 6.34 µM. In addition, the half-maximal effective concentration (EC50) in [4] stood at 290 nM; in data set [5] it was 7.3 nM; in [6], 6.3 nM; in data set [7], 44 nM; in [2], 7.4 nM; in data set [9], 102 nM.

`N#Cc1ccc(Nc2nccc(Oc3ccc(-c4ccc(C#N)cc4)c(F)c3F)n2)cc1`: in the data set with MT4, the CC50 is more than 294 µM. The selectivity ratio at 120 h in data set [1] is more than 19200. In addition, the 50% effective concentration (EC50) in data set [2] worked out at 15.3 nM.

Regarding `Cc1ccnc2c1NC(=O)c1cccnc1N2C1CC1` [NEVIRAPINE], the CC50 with MT4 is more than 15 µM. The EC50 in [5] is more than 15900 nM; in data set [7], 2100 nM; in data set [9] it was more than 10100 nM.

Consider `Cc1cc(Nc2ccnc(Nc3ccc(C#N)cc3)n2)ccc1-c1ccc(C#N)cc1`, for which, in the data set on MT4, the CC50 was 12.4 µM. The selectivity ratio at 120 h in data set [1] is 894. Moreover, in data set [2], the half-maximal effective concentration (EC50) turned out to be 13.9 nM.

For `N#Cc1ccc(Nc2nccc(Oc3ccc(-c4ccc(C#N)cc4)c(Cl)c3)n2)cc1`, the CC50 in the data set on MT4 worked out at 31.1 µM. Also, the selectivity ratio at 120 h in data set [1] was determined as 3130. Besides, in data set [2], the EC50 is 9.9 nM.

Consider `Cc1cc(-c2ccc(C#N)c(F)c2)ccc1Oc1ccnc(Nc2ccc(C#N)cc2)n1`, for which, in the data set on MT4, the CC50 is more than 297 µM. In addition, the selectivity ratio at 120 h in [1] is more than 17400. For the same compound, in data set [2], the EC50 worked out at 17.1 nM.

For `N#Cc1ccc(Nc2nccc(Oc3ccc(-c4ccc(C#N)cc4F)cc3F)n2)cc1`, the CC50 in the data set with MT4 was more than 294 µM. In addition, the selectivity ratio at 120 h in [1] was more than 98000. In data set [2], the concentration for a half-maximal effect (EC50) stood at 3.1 nM.

These data come from ChEMBL document CHEMBL4354822, “Ligand-Based Design of Nondimethylphenyl-Diarylpyrimidines with Improved Metabolic Stability, Safety, and Oral Pharmacokinetic Profiles” (J Med Chem, 2019).
